Measurements: patent publication US9255100B2 (BAYER INTELLECTUAL PROPERTY GMBH, priority 2010, dated 2016)

What was measured:
[1] = molecular target: T1, N-terminally GST-tagged human full length recombinant Mps-1 kinase (Homo sapiens, UniProt P33981); test: Mps-1 kinase assay (TR-FRET); type: biochemical; conditions: Mps1 IC50 [nM], 10 μM ATP, 1 μM peptide substrate, 60 min at 22° C.
T1 construct: N-terminally GST-tagged human full length recombinant Mps-1 kinase; purchased Invitrogen, Karslruhe, Germany PV4071
T1 sequence (P33981 1-857): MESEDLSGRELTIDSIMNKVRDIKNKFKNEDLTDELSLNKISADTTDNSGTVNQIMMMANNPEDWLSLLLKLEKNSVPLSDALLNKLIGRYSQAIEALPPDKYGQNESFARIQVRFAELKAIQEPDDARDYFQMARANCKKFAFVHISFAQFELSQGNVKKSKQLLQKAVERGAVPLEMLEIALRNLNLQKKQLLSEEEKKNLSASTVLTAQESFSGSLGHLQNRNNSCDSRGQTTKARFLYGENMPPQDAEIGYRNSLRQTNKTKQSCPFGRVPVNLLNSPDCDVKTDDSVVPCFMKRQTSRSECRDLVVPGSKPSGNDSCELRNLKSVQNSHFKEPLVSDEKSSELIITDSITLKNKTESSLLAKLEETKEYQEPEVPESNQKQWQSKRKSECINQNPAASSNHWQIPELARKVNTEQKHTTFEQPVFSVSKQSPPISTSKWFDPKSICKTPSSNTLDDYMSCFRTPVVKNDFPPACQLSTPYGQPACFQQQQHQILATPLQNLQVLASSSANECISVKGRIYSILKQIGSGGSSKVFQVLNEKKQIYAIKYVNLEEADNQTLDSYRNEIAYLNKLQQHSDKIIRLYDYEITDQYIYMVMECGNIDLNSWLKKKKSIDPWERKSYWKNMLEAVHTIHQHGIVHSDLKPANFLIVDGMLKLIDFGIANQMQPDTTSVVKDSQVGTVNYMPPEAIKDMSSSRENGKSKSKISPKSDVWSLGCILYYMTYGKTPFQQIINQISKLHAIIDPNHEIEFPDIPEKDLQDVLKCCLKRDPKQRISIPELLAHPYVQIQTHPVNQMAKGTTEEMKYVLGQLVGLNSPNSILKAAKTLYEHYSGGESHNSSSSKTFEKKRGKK
Method in brief: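 TR-FRET signal between a Europium anti-phospho-Ser/Thr antibody and streptavidin-XLent reported phosphorylation of a biotinylated peptide by GST-tagged full-length Mps-1. Enzyme was near 1 nM final, chosen per lot for linearity.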

[2] = test system: Hepatocytes from Han Wistar rats; test: In vitro metabolic stability in rat hepatocytes (calculation of hepatic in vivo blood clearance and Fmax); type: in vitro ADME; conditions: for Fmax [%]: maximal oral bioavailability calculated from half-life in rat hepatocytes, 1 μM test compound
Protocol: Investigation of In Vitro Metabolic Stability in Rat Hepatocytes (Including Calculation of Hepatic In Vivo Blood Clearance (CL))
Hepatocytes from Han Wistar rats were isolated via a 2-step perfusion method. After perfusion, the liver was carefully removed from the rat: the liver capsule was opened and the hepatocytes were gently shaken out into a Petri dish with ice-cold WME. The resulting cell suspension was filtered through sterile gaze in 50 ml falcon tubes and centrifuged at 50×g for 3 min at room temperature. The cell pellet was resuspended in 30 ml WME and centrifuged through a Percoll® gradient for 2 times at 100×g. The hepatocytes were washed again with Williams' medium E (WME) and resuspended in medium containing 5% FCS. Cell viability was determined by trypan blue exclusion.
For the metabolic stability assay liver cells were distributed in WME containing 5% FCS to glass vials at a density of 1.0×10^6 vital cells/ml. The test compound was added to a final concentration of 1 μM. During incubation, the hepatocyte suspensions were continuously shaken and aliquots were taken at 2, 8, 16, 30, 45 and 90 min, to which equal volumes of cold methanol were immediately added. Samples were frozen at −20° C. over night, after subsequently centrifuged for 15 minutes at 3000 rpm and the supernatant was analyzed with an Agilent 1200 HPLC-system with LCMS/MS detection.
The half-life of a test compound was determined from the concentration-time plot. From the half-life the intrinsic clearances were calculated. Together with the additional parameters liver blood flow, amount of liver cells in vivo and in vitro. The hepatic in vivo blood clearance (CL) and the maximal oral bioavailability (Fmax) was calculated. The following parameter values were used: Liver blood flow—4.2 L/h/kg rat; specific liver weight—32 g/kg rat body weight; liver cells in vivo—1.1×10^8 cells/g liver, liver cells in vitro—0.5×10^6/ml.

Row | SMILES | IC50 [1] | Fmax [%] [2] | increase of metabolic stability ([2]; relative increase of Fmax (rat hepatocytes) against the comparison compound of the same table)
1 | Cc1cc(-c2cnc3c(NCCN4CCOCC4)cc(Oc4cccc(F)c4)nn23)ccc1C(=O)NC1CC1 [Example 500, N-cyclopropyl-4-[6-(3-fluoro-phenoxy)-8-{[2-(morpholin-4-yl)ethyl]amino}imidazo[1,2-b]pyridazin-3-yl]-2-methylbenzamide] | 0.1 nM | 40% | –
2 | Cc1cc(-c2cnc3c(NCC4CCOCC4)cc(Oc4cccc(F)c4)nn23)ccc1C(=O)NC1CC1 [Example 323, N-cyclopropyl-4-{6-(3-fluorophenoxy)-8-[(tetra-hydro-2H-pyran-4-yl-methyl)amino]imidazo[1,2-b]pyridazin-3-yl}-2-methylbenzamide] | 0.2 nM | 31% | –
3 | Cc1cc(-c2cnc3c(NCCC(F)(F)F)cc(Oc4cccc(F)c4)nn23)ccc1C(=O)NC1(C)CC1 [Example 461, 4-{6-(3-fluorophenoxy)-8-[(3,3,3-trifluoropropyl)amino]imidazo[1,2-b]pyridazin-3-yl}-2-methyl-N-(1-methylcyclopropyl)benzamide] | 0.2 nM | 75% | –
4 | Cc1ccc(F)cc1Oc1cc(NCCC(F)(F)F)c2ncc(-c3ccc(C(=O)NC4CC4)c(C)c3)n2n1 [Example 390, N-cyclopropyl-4-{6-(5-fluoro-2-methylphenoxy)-8-[(3,3,3-trifluoropropyl)amino]imidazo[1,2-b]pyridazin-3-yl}-2-methylbenzamide] | 0.1 nM | 55% | –
5 | COCCNc1cc(Oc2cccc(F)c2)nn2c(-c3ccc(C(=O)NC4CC4)c(C)c3)cnc12 [Example 492, N-cyclopropyl-4-{6-(3-fluoro-phenoxy)-8-[(2-methoxyethyl)amino]imidazo[1,2-b]pyridazin-3-yl}-2-methylbenzamide] | 0.1 nM | 42% | –
6 | O=C(NC1CC1)c1ccc(-c2cnc3c(NCCC(F)(F)F)cc(Oc4cccc(F)c4)nn23)cc1 [Example 463, N-cyclopropyl-4-{6-(3-fluorophenoxy)-8-[(3,3,3-trifluoropropyl)amino]imidazo[1,2-b]pyridazin-3-yl}benzamide] | – | 7% | –
7 | Cc1cc(-c2cnc3c(NCCC(F)(F)F)cc(Oc4cccc(F)c4)nn23)ccc1C(=O)NC1CC1 [Example 80, N-cyclopropyl-4-{6-(3-fluorophenoxy)-8-[(3,3,3-trifluoropropyl)amino]imidazo[1,2-b]pyridazin-3-yl}-2-methylbenzamide] | 0.2 nM | 56% | 81%
8 | COc1ccc(Oc2cc(NCC3CCOCC3)c3ncc(-c4ccc(C(=O)NC5CC5)c(C)c4)n3n2)c(F)c1 [Example 445, N-cyclopropyl-4-{6-(2-fluoro-4-methoxyphenoxy)-8-[(tetrahydro-2H-pyran-4-ylmethyl)amino]imidazo[1,2-b]pyridazin-3-yl}-2-methylbenzamide] | 0.2 nM | 61% | –
9 | CNc1cc(Oc2cccc(F)c2)nn2c(-c3ccc(C(=O)NC4CC4)c(C)c3)cnc12 [Example 510, N-cyclopropyl-4-[6-(3-fluoro-phenoxy)-8-(methylamino)imidazo[1,2-b]pyridazin-3-yl]-2-methylbenzamide] | 0.1 nM | 39% | –
10 | Cc1cc(-c2cnc3c(NCCS(C)(=O)=O)cc(Oc4cccc(F)c4F)nn23)ccc1C(=O)NC1CC1 [Example 516, N-cyclopropyl-4-[6-(2,3-difluorophenoxy)-8-{[2-(methylsulfonyl)ethyl]amino}imidazo[1,2-b]pyridazin-3-yl]-2-methylbenzamide] | 0.3 nM | 69% | –
11 | Cc1cc(-c2cnc3c(NCC4CCN(C)CC4)cc(Oc4cccc(F)c4F)nn23)ccc1C(=O)NC1CC1 [Example 526, N-cyclopropyl-4-[6-(2,3-difluorophenoxy)-8-{[(1-methylpiperidin-4-yl)-methyl]amino}imidazo[1,2-b]pyridazin-3-yl]-2-methylbenzamide] | 0.1 nM | 50% | –
12 | COc1ccc(Oc2cc(NCC3CCOCC3)c3ncc(-c4ccc(C(=O)NC5CC5)cc4)n3n2)c(F)c1 [Example 444, N-cyclopropyl-4-{6-(2-fluoro-4-methoxyphenoxy)-8-[(tetrahydro-2H-pyran-4-ylmethyl)amino]imidazo[1,2-b]pyridazin-3-yl}benzamide] | – | 22% | –
13 | Cc1cc(-c2cnc3c(NCC(C)(C)O)cc(-c4cccn4C)nn23)ccc1C(=O)NC1CC1 [Example 161, N-cyclopropyl-4-{8-[(2-hydroxy-2-methylpropyl)amino]-6-(1-methyl-1H-pyrrol-2-yl)imidazo[1,2-b]pyridazin-3-yl}-2-methylbenzamide] | 6.2 nM | – | –
14 | Cc1cc(F)ccc1Sc1cc(NCC(C)(C)O)c2ncc(-c3ccc(C(=O)NC4CC4)c(C)c3)n2n1 [Example 69, N-cyclopropyl-4-{6-[(4-fluoro-2-methylphenyl)sulfanyl]-8-[(2-hydroxy-2-methylpropyl)amino]imidazo[1,2-b]pyridazin-3-yl}-2-methylbenzamide] | 1 nM | – | –
15 | C/C=C(\C)c1cc(NCCC(F)(F)F)c2ncc(-c3ccc(C(=O)NC4CC4)c(C)c3)n2n1 [Example 221, 4-{6-[(2E)-but-2-en-2-yl]-8-[(3,3,3-trifluoropropyl)amino]imidazo[1,2-b]pyridazin-3-yl}-N-cyclopropyl-2-methylbenzamide] | 1.2 nM | – | –
16 | Cc1cc(-c2cnc3c(NCC(C)(C)O)cc(Sc4c(F)cccc4F)nn23)ccc1C(=O)NC1CC1 [Example 218, N-cyclopropyl-4-{6-[(2,6-difluorophenyl)sulfanyl]-8-[(2-hydroxy-2-methylpropyl)amino]imidazo[1,2-b]pyridazin-3-yl}-2-methylbenzamide] | 3.7 nM | – | –
17 | Cc1cc(-c2cnc3c(NCC(C)(C)O)cc(Oc4ccccc4)nn23)ccc1C(=O)NC1CC1 [Example 76, N-cyclopropyl-4-{8-[(2-hydroxy-2-methylpropyl)amino]-6-phenoxyimidazo[1,2-b]pyridazin-3-yl}-2-methylbenzamide] | < 0.7 nM | – | –
18 | Cc1cc(-c2cnc3c(NCC(C)(C)O)cc(Nc4ccc(Cl)cc4F)nn23)ccc1C(=O)NC1CC1 [Example 348, 4-{6-[(4-chloro-2-fluorophenyl)amino]-8-[(2-hydroxy-2-methylpropyl)amino]imidazo[1,2-b]pyridazin-3-yl}-N-cyclopropyl-2-methylbenzamide] | 1.5 nM | – | –
19 | Cc1cc(-c2cnc3c(NCC(C)(C)N)cc(-c4ccnn4C)nn23)ccc1C(=O)NC1CC1 [Example 58, 4-{8-[(2-Amino-2-methylpropyl)amino]-6-(1-methyl-1H-pyrazol-5-yl)imidazo[1,2-b]pyridazin-3-yl}-N-cyclopropyl-2-methylbenzamide] | 20.5 nM | – | –
20 | CC(C)CNc1cc(Cl)nn2c(-c3ccc(C(=O)NC4CC4)c(Cl)c3)cnc12 [Example 181, 2-Chloro-4-{6-chloro-8-[(2-methylpropyl)amino]imidazo[1,2-b]pyridazin-3-yl}-N-cyclopropyl-benzamide] | 39.9 nM | – | –
21 | CC(C)(O)CNc1cc(-c2ccc(F)cc2)nn2c(-c3ccc(-c4cnc(C5CC5)[nH]4)cc3)cnc12 [Example 8, 1-({3-[4-(2-Cyclopropyl-1H-imidazol-5-yl)phenyl]-6-(4-fluorophenyl)imidazo[1,2-b]pyridazin-8-yl}amino)-2-methylpropan-2-ol] | 111 nM | – | –
